# How the values were obtained:
# 16S A site 27mer RNA = assay: ESI-FTICR mass spectrometric (MASS) binding assay, 16S A-site 27-mer RNA model; set-up: species or system prokaryotic
# Method: (§1) The ESI-FTICR mass spectrum depicted in FIG. 26 was acquired from a […] mixture of untagged 16S and tagged 18S in the presence of an equimolar mixture of five aminoglycosides. It is to be understood that other biomolecules may be used in place of the aminoglycosides. The aminoglycosides have been selected from two classes of 2-deoxystreptamines: 4,5-disubstituted (paromomycin, and lividomycin), and 4,6-disubstituted (tobramycin, sisomicin, and bekanamycin), present at 500 nM each. Complexes corresponding to 1:1 binding of individual aminoglycosides were observed between 16S and all members of the aminoglycoside mixture, with the apparent affinities estimated from the abundances of the respective complexes differing substantially. Signal intensities from the complexes with paromomycin (m/z 1925.572) and lividomycin (m/z 1954.790) are consistent with MS-measured dissociation constants of 110 nM and 28 nM, respectively. The intensities of 16S complexes with tobramycin (m/z 1895.960), bekanamycin (m/z 1899.171), and sisomicin (m/z 1891.972) were reduced, consistent with solution dissociation constants of […]. Wang, et al., Biochemistry, 1997, 36, 768-779. […] The spectrum is calibrated using multiple isotope peaks of the (M-5H^+)^5− and (M-4H^+)^4− charge states of the free RNA as internal mass standards which brackets the m/z range in which complexes are observed. The average mass measurement error obtained for the complexes in FIG. 26 is 2.1 ppm when m/z differences are measured between the most abundant (4 ^13C) isotope peak of 16S and each complex. This post calibration scheme is easily automated which enables rapid, high precision mass measurements of affinity selected ligands against multiple targets in a high throughput mode.
# A preferred first step of MASS screening involves mixing the RNA target (or targets) with a combinatorial library of ligands designed to bind to a specific site on the target molecule(s). Specific noncovalent complexes formed in solution between the target(s) and any library members are transferred into the gas phase and ionized by ESI. As described herein, from the measured mass difference between the complex and the free target, the identity of the binding ligand can be determined. The dissociation constant of the complex can be determined in two ways: if a ligand with a known binding affinity for the target is available, a relative Kd can be measured by using the known ligand as an internal control and measuring the abundance of the unknown complex to the abundance of the control, alternatively, if no internal control is available, Kd's can be determined by making a series of measurements at different ligand concentrations and deriving a Kd value from the “titration” curve.
# Electrospray ionization Fourier transform ion cyclotron resonance mass spectrometry was performed on a solution containing […] 16S RNA (the 27-mer construct shown in FIG. 24) and 500 nM paromomycin is depicted in FIG. 13. A 1:1 complex was observed between the paromomycin and the RNA consistent with specific aminoglycoside binding at the A-site. The insets show the measured and calculated isotope envelopes of the (M-5H+)5− species of the free RNA and the RNA-paromomycin complex. High precision mass measurements were acquired using isotope peaks of the (M-5H+)^5− and (M-4H^+)^4− charge states of the free RNA as internal mass standards and measuring the m/z difference between the free and bound RNA.
# ESI-MS measurements of a solution containing a fixed concentration of RNA at different concentrations of ligand were obtained. By measuring the ratio of bound:unbound RNA at varying ligand concentrations, the Kd was determined by 1/slope of the “titration curve”. The MS derived value of 110 nM is in good agreement with previously reported literature value of 200 nM. […]
# 18S A site model = assay: ESI-FTICR mass spectrometric (MASS) binding assay, mass-tagged 18S A-site 27-mer RNA model; set-up: species or system eukaryotic; conditions: aminoglycosides 500 nM each, mixture with untagged 16S and tagged 18S
# Method: as §1, with “The” for “The spectrum is calibrated using multiple isotope peaks of the (M-5H^+)^5− and (M-4H^+)^4− charge states of the free RNA as internal mass standards which brackets the m/z range in which complexes are observed. The”, “This post calibration scheme is easily automated which enables rapid, high precision mass measurements of affinity selected ligands against multiple targets in a high throughput mode.” left out
structure (smiles),measurement,setting,value
NC[C@@H]1O[C@H](O[C@H]2[C@@H](O)[C@H](O[C@@H]3[C@@H](O)[C@H](N)C[C@H](N)[C@H]3O[C@H]3O[C@H](CO)[C@@H](O)[C@H](O)[C@H]3N)O[C@@H]2CO)[C@H](N)[C@@H](O)[C@@H]1O [paromomycin],Kd,"16S A site 27mer RNA; ESI-FTICR MS, 16S A site 27mer, read-out: MS-measured dissociation constant (KD)",0.11 µM
same,complexes observed with 16S (in words),"16S A site 27mer RNA; aminoglycosides 500 nM each, mixture with untagged 16S and tagged 18S",1:1 complex and High affinity complexes
same,complexes observed with 18S (in words),18S A site model,complete absence of complexes
